Laboratory results: the kinase profiling compilation of Christmann-Franck et al. (2016)

Columns and labels:
Assay in all cases: radiometric filter-binding kinase assay, Kinase HotSpot
Conditions in all cases: compound 0.5 µM; ATP 10 µM
PRKD1 (human) = PRKD1 (human) (UniProt Q15139)
DYRK3 (human) = DYRK3 (human) (UniProt O43781)
NTRK1 (human) = NTRK1 (human) (UniProt P04629)
PTK2B (human) = PTK2B (human) (UniProt Q14289)
DAPK1 (human) = DAPK1 (human) (UniProt P53355)
MARK3 (human) = MARK3 (human) (UniProt P27448)
JAK3 JH1 JH2 (human) = JAK3 JH1 JH2 (human) (UniProt P52333)
CDK6 CCND3 (human) = CDK6 CCND3 (human) (UniProt P30281+Q00534)
STK33 (human) = STK33 (human) (UniProt Q9BYT3)
ROCK1 (human) = ROCK1 (human) (UniProt Q13464)
EPHB2 (human) = EPHB2 (human) (UniProt P29323)
IRAK1 (human) = IRAK1 (human) (UniProt P51617)
ULK2 (human) = ULK2 (human) (UniProt Q8IYT8)
CSNK1G3 (human) = CSNK1G3 (human) (UniProt Q9Y6M4)
STK3 (human) = STK3 (human) (UniProt Q13188)
GRK6 (human) = GRK6 (human) (UniProt P43250)
DAPK2 (human) = DAPK2 (human) (UniProt Q9UIK4)
STK39 (human) = STK39 (human) (UniProt Q9UEW8)
CDC42BPB (human) = CDC42BPB (human) (UniProt Q9Y5S2)
PIM2 (human) = PIM2 (human) (UniProt Q9P1W9)
RIPK2 (human) = RIPK2 (human) (UniProt O43353)
TNK2 (human) = TNK2 (human) (UniProt Q07912)
ACVR1B (human) = ACVR1B (human) (UniProt P36896)
MAP3K8 (human) = MAP3K8 (human) (UniProt P41279)
MAP4K4 (human) = MAP4K4 (human) (UniProt O95819)
MAP3K3 (human) = MAP3K3 (human) (UniProt Q99759)
EPHA4 (human) = EPHA4 (human) (UniProt P54764)
CAMK2G (human) = CAMK2G (human) (UniProt Q13555)
EPHB4 (human) = EPHB4 (human) (UniProt P54760)
CLK4 (human) = CLK4 (human) (UniProt Q9HAZ1)
BRSK1 (human) = BRSK1 (human) (UniProt Q8TDC3)
TSSK2 (human) = TSSK2 (human) (UniProt Q96PF2)
PRKX (human) = PRKX (human) (UniProt P51817)
BMX (human) = BMX (human) (UniProt P51813)
CDK2 CCNE1 (human) = CDK2 CCNE1 (human) (UniProt P24941+P24864)
CLK1 (human) = CLK1 (human) (UniProt P49759)
[1] = target: TYK2 JH1 catalytic (human) (UniProt P29597)
PRKCI (human) = PRKCI (human) (UniProt P41743)
CDK9 CCNT1 (human) = CDK9 CCNT1 (human) (UniProt P50750+O60563)
MAP3K11 (human) = MAP3K11 (human) (UniProt Q16584)
CSNK1A1 (human) = CSNK1A1 (human) (UniProt P48729)
CLK3 (human) = CLK3 (human) (UniProt P49761)

ACVR1B (human), sequence (P36896 whole entry, looked up): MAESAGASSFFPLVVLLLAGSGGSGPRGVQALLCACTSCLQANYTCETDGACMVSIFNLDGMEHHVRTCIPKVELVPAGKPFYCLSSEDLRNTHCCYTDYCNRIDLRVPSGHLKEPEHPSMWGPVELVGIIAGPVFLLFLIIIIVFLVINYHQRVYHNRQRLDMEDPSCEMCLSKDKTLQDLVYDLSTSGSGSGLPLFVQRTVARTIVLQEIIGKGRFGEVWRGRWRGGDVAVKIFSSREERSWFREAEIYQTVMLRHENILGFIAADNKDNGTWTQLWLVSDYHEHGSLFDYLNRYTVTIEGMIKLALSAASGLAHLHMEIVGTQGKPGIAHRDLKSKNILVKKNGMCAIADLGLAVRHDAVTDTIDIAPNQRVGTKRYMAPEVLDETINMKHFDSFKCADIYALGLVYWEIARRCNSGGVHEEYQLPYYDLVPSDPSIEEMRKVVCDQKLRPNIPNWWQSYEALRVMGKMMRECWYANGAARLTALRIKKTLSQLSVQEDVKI
CAMK2G (human), sequence (Q13555 whole entry, looked up): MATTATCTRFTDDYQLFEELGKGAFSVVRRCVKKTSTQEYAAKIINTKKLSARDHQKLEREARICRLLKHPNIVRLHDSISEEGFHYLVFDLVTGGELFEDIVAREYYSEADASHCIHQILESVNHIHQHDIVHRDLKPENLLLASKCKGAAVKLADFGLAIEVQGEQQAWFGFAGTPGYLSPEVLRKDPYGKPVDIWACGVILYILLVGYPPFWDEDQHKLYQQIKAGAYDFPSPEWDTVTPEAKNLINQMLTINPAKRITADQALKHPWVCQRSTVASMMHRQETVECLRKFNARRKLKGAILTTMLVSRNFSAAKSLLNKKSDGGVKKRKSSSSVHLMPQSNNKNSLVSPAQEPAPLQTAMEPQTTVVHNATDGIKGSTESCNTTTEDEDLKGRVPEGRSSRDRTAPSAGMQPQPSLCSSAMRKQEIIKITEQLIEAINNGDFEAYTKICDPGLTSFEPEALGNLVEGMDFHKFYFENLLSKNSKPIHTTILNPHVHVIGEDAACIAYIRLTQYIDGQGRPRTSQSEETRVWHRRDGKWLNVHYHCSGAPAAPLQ
PRKD1 (human), sequence (Q15139 whole entry, looked up): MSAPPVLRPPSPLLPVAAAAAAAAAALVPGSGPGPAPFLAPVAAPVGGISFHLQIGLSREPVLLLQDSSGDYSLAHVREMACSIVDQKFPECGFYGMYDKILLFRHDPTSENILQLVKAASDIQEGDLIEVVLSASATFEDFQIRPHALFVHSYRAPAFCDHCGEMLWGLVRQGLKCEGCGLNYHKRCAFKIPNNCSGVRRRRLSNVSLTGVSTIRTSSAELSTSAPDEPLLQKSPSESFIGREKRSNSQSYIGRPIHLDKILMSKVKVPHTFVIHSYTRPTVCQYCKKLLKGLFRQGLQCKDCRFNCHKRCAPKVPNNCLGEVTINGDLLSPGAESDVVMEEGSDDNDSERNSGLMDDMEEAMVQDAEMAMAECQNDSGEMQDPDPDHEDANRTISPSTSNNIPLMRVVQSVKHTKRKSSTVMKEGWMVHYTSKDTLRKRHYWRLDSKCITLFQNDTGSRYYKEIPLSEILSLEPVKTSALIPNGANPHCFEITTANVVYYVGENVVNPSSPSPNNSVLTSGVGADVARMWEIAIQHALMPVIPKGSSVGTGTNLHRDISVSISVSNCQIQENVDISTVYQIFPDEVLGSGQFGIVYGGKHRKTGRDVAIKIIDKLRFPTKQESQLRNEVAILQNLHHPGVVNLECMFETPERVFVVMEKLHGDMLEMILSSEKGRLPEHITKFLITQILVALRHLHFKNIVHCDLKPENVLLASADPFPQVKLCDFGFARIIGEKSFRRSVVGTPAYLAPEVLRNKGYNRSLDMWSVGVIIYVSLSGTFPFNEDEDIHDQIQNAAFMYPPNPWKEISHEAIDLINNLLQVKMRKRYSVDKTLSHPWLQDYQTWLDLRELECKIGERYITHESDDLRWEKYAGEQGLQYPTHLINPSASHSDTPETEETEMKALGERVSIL
MAP3K3 (human), sequence (Q99759 whole entry, looked up): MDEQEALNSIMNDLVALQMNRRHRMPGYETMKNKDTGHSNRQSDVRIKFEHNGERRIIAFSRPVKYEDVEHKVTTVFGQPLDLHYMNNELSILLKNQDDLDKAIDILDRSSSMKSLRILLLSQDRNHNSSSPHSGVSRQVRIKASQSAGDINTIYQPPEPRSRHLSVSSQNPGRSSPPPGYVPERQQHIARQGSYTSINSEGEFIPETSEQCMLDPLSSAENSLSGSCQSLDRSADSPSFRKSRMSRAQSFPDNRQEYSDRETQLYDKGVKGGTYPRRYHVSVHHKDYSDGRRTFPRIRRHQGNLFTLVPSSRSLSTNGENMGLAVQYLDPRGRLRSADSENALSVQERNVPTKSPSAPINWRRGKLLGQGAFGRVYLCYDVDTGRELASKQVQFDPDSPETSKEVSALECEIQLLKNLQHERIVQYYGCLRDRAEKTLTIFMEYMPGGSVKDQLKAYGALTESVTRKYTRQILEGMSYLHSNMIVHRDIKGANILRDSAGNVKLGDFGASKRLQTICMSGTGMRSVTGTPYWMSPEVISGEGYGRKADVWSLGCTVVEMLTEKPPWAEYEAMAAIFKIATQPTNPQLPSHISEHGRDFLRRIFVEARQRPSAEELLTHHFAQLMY
RIPK2 (human), sequence (O43353 whole entry, looked up): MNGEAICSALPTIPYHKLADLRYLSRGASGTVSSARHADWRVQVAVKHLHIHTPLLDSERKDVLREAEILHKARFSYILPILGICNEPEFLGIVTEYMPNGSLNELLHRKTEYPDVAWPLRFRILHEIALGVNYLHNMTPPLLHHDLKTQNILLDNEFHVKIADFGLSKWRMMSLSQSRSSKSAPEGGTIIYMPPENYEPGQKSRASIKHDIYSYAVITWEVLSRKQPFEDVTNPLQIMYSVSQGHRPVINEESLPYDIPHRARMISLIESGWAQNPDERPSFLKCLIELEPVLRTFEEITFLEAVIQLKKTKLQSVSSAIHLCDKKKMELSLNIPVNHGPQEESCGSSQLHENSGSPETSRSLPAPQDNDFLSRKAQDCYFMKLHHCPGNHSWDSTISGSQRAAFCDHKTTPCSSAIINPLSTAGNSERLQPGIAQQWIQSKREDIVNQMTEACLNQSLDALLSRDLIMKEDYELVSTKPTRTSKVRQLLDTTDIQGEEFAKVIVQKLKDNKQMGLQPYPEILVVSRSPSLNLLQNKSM
EPHB4 (human), sequence (P54760 whole entry, looked up): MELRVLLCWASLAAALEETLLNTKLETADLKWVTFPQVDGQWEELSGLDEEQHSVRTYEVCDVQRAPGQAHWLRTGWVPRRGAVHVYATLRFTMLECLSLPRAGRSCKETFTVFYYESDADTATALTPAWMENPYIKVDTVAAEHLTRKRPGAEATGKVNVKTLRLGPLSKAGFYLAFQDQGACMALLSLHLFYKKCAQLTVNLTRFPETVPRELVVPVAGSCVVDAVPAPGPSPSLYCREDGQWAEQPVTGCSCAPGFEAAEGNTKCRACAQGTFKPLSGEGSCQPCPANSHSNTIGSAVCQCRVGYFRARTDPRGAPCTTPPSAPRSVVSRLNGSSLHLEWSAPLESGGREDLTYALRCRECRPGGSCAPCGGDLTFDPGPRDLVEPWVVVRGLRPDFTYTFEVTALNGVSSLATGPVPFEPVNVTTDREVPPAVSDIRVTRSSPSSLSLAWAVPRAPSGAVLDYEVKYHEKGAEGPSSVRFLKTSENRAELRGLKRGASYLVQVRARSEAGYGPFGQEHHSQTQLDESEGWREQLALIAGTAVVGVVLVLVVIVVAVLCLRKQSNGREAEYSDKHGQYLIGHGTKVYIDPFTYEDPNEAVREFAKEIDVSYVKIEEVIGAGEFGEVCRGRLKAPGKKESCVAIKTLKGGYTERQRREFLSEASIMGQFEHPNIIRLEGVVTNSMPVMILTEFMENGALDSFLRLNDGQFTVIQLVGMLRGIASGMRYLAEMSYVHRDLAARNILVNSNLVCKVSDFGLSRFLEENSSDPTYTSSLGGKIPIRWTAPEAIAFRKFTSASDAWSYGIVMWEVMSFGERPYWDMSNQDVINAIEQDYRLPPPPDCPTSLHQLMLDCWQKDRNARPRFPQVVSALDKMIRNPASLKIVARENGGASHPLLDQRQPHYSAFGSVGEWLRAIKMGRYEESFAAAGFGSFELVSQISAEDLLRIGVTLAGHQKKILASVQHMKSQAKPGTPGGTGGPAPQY
CSNK1A1 (human), sequence (P48729 whole entry, looked up): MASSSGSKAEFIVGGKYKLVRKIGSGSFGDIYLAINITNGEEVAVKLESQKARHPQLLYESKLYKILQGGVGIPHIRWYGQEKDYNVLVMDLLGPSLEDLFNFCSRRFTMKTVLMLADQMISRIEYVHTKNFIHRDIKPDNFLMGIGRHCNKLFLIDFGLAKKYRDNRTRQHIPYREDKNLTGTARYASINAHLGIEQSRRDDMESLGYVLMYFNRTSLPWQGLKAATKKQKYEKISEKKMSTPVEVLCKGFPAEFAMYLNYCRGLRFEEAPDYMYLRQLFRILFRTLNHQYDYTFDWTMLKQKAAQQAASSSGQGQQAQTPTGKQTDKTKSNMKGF
CLK4 (human), sequence (Q9HAZ1 whole entry, looked up): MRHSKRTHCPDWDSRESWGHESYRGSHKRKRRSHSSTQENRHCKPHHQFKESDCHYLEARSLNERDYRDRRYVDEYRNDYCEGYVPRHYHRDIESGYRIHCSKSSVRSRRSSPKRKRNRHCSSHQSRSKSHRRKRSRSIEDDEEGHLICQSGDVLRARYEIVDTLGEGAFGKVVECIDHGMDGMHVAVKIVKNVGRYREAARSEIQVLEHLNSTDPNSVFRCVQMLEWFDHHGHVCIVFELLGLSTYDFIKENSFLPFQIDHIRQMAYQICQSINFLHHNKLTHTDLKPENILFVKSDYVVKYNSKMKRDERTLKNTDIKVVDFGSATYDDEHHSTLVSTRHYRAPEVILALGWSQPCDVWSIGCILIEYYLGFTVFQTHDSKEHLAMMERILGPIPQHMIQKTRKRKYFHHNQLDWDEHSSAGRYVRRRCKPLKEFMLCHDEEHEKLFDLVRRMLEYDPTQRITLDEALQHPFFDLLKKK

Compound: Clc1ccc(Nc2nnc(Cc3ccncc3)c3ccccc23)cc1
- residual activity (PRKD1 (human)): 101%
- residual activity (DYRK3 (human)): 95.9%
- residual activity (NTRK1 (human)): 98.7%
- residual activity (PTK2B (human)): 102%
- residual activity (DAPK1 (human)): 105%
- residual activity (MARK3 (human)): 102%
- residual activity (JAK3 JH1 JH2 (human)): 92.1%
- residual activity (CDK6 CCND3 (human)): 125%
- residual activity (STK33 (human)): 94.2%
- residual activity (ROCK1 (human)): 110%
- residual activity (EPHB2 (human)): 107%
- residual activity (IRAK1 (human)): 94.1%
- residual activity (ULK2 (human)): 99.9%
- residual activity (CSNK1G3 (human)): 100%
- residual activity (STK3 (human)): 92.1%
- residual activity (GRK6 (human)): 99.9%
- residual activity (DAPK2 (human)): 91.7%
- residual activity (STK39 (human)): 92.6%
- residual activity (CDC42BPB (human)): 99.5%
- residual activity (PIM2 (human)): 95.8%
- residual activity (RIPK2 (human)): 111%
- residual activity (TNK2 (human)): 91.7%
- residual activity (ACVR1B (human)): 108%
- residual activity (MAP3K8 (human)): 98.2%
- residual activity (MAP4K4 (human)): 107%
- residual activity (MAP3K3 (human)): 118%
- residual activity (EPHA4 (human)): 102%
- residual activity (CAMK2G (human)): 115%
- residual activity (EPHB4 (human)): 85.1%
- residual activity (CLK4 (human)): 108%
- residual activity (BRSK1 (human)): 93.1%
- residual activity (TSSK2 (human)): 82.8%
- residual activity (PRKX (human)): 152%
- residual activity (BMX (human)): 106%
- residual activity (CDK2 CCNE1 (human)): 94.5%
- residual activity (CLK1 (human)): 110%
- residual activity [1]: 89.4%
- residual activity (PRKCI (human)): 94.2%
- residual activity (CDK9 CCNT1 (human)): 94.9%
- residual activity (MAP3K11 (human)): 106%
- residual activity (CSNK1A1 (human)): 95%
- residual activity (CLK3 (human)): 105%

Compound: CSc1nc(-c2ccc(F)cc2)c(-c2ccnc(NC(C)c3ccccc3)c2)[nH]1 (centres undefined)
- residual activity (PRKD1 (human)): 90.1%
- residual activity (DYRK3 (human)): 94.2%
- residual activity (NTRK1 (human)): 91.2%
- residual activity (PTK2B (human)): 100%
- residual activity (DAPK1 (human)): 101%
- residual activity (MARK3 (human)): 100%
- residual activity (JAK3 JH1 JH2 (human)): 98.5%
- residual activity (CDK6 CCND3 (human)): 98.3%
- residual activity (STK33 (human)): 107%
- residual activity (ROCK1 (human)): 91.7%
- residual activity (EPHB2 (human)): 85.4%
- residual activity (IRAK1 (human)): 103%
- residual activity (ULK2 (human)): 94.1%
- residual activity (CSNK1G3 (human)): 58.4%
- residual activity (STK3 (human)): 88.8%
- residual activity (GRK6 (human)): 79.8%
- residual activity (DAPK2 (human)): 101%
- residual activity (STK39 (human)): 95%
- residual activity (CDC42BPB (human)): 98.8%
- residual activity (PIM2 (human)): 87.9%
- residual activity (RIPK2 (human)): 85.1%
- residual activity (TNK2 (human)): 78.4%
- residual activity (ACVR1B (human)): 95.9%
- residual activity (MAP3K8 (human)): 88.6%
- residual activity (MAP4K4 (human)): 91.6%
- residual activity (MAP3K3 (human)): 80%
- residual activity (EPHA4 (human)): 93.1%
- residual activity (CAMK2G (human)): 102%
- residual activity (EPHB4 (human)): 99.9%
- residual activity (CLK4 (human)): 79.2%
- residual activity (BRSK1 (human)): 84.6%
- residual activity (TSSK2 (human)): 78.2%
- residual activity (PRKX (human)): 91.5%
- residual activity (BMX (human)): 102%
- residual activity (CDK2 CCNE1 (human)): 88%
- residual activity (CLK1 (human)): 96.8%
- residual activity [1]: 96.5%
- residual activity (PRKCI (human)): 91.9%
- residual activity (CDK9 CCNT1 (human)): 99.1%
- residual activity (MAP3K11 (human)): 101%
- residual activity (CSNK1A1 (human)): 82.6%
- residual activity (CLK3 (human)): 85.4%
